“Also recorded” adds a separate entry of the source.
Assays:
[1] = system: Th17n, Th17p and iTreg cells; experiment: Population (bulk) RNA-seq of in vitro differentiated T cells; type: cell-based, mouse
Procedure: (§1) RNA-seq. For population (bulk) RNA-seq, in vitro differentiated T-cells were sorted for live cells and lysed with RLT Plus buffer and RNA was extracted using the RNeasy Plus Mini Kit (Qiagen). Full-length RNA-seq libraries were prepared as previously described and paired-end sequenced (75 bp×2) with a 150 cycle Nextseq 500 high output V2 kit.
Bulk RNA-Seq and SMART-Seq2 analysis. Applicants aligned single-cell SMART-Seq2 libraries with Bowtie2, quantified TPM gene expression with RSEM, and performed QC as Applicants described in detail in a previous publication^51. This computational pipeline is a massively revised and updated version of the one originally used to analyze these libraries^19. Batch effects and other nuisance factors were normalized with a model chosen empirically with SCONE ^52. Bulk RNA-Seq were processed with a modified variant of the same pipeline. In the absence of UMIs, differentially expressed genes were called through a linear model fitted to TPM values with the limma R package and with a mean-variance trend added to the empirical bayes prior^53,54.
as §1
Bulk RNA libraries from DFMO- or vehicle-treated Th17p, Th17n, or Treg were studied with 3 replicates per condition for a total of 18 libraries as shown in FIG. 36A. Genes that are associated with a Th17 or Treg programs (orange and purple, respectively, in FIG. 36B-C) were determined by differential expression test between bulk RNA libraries of (vehicle-treated) Th17n and Th17p on one side and Treg on the other with BH-adjusted p<0.05 and absolute value of log 2 fold-change of at least 1.5. Genes associated with the Th17p or Th17n program (magenta and green, respectively, in FIG. 40A) were determined by differential expression test between bulk RNA libraries of (vehicle-treated) Th17p vs. Th17n with the same thresholds. The PCA shown in FIG. 36A was computed on the set of 3,414 that were differentially associated with Th17, Treg, Th17p, or Th17n programs by the aforementioned criteria to focus it on the subspace of the transcriptome relevant to Th17 pathogenicity phenotypes.
Applicants aligned single-cell SMART-Seq libraries with Bowtie2, quantified TPM gene expression with RSEM, and performed QC as Applicants described in detail in a previous publication (Fletcher et al., 2017). This computational pipeline is a massively revised and updated version of the one originally used to analyze these libraries (Gaublomme et al., 2015). Batch effects and other nuisance factors were normalized with a model chosen empirically with SCONE (Cole et al., 2019). Bulk RNA-Seq were processed with a modified variant of the same pipeline.
For the Smart-Seq libraries, due the absence of UMIs in the dataset, differentially expressed genes were called through a linear model _tted to TPM values with the limma R package and with a mean-variance trend added to the empirical Bayes prior (Ritchie et al., 2015). For the bulk RNA libraries, differentially expressed genes were called with limma-trend or limma-voom (Law et al., 2014) depending on the variance of library sizes, as recommended in the limma package manual (Smyth, 2019).

ODC = molecular target: T1, ODC (Homo sapiens, UniProt P11926); settings: cited from earlier work
T1 sequence (P11926 1-461): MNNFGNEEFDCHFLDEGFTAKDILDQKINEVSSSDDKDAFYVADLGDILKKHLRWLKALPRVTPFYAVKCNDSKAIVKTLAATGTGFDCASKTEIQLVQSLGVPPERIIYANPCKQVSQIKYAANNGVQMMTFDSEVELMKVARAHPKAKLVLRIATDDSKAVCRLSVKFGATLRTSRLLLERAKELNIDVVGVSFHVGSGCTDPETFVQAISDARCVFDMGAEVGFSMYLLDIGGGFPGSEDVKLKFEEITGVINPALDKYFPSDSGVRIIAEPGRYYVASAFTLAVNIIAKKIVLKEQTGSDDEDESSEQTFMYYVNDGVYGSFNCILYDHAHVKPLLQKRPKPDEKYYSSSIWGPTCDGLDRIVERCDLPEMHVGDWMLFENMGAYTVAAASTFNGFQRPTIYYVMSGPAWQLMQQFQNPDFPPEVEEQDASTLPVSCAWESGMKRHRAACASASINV

NCCC[C@](N)(C(=O)O)C(F)F [DFMO, 2-(difluoromethyl)ornithine]
expression of chromatin modifiers / chromatin associated genes [1]: alters chromatin associated genes; also recorded: significant changes
genes shared / expressed comparably between Th17 and Treg cells [1]: do not change; also recorded: no significant effect
transcriptome shift (principal component analysis) ([1]; Th17 and iTreg cells): shift Th17 cells to Treg-like transcriptome; also recorded: shift the cells towards Treg gene expression; also recorded: clearly driving cells towards Treg cells; also recorded: driving Th17 cells towards Treg cell profiles; also recorded: promotes Treg-like transcriptome
Foxp3 ([1]; Th17 cells): upregulated
Il17a ([1]; Th17 cells): significantly suppressed
Il17f ([1]; Th17 cells): significantly suppressed
Il23r ([1]; Th17 cells): significantly suppressed
Th17 specific genes / transcriptome ([1]; Th17n and Th17p cells): reducing canonical Th17 genes; also recorded: shift Th17 specific genes down; also recorded: suppressed
Treg specific genes / transcriptome ([1]; Th17n and Th17p cells): shift Treg specific genes up; also recorded: promoted
proinflammatory state genes (upregulated in Th17p) ([1]; Th17p cells): downregulation
regulatory state genes (upregulated in Th17n) ([1]; Th17p cells): significant upregulation
uptake of exogenous putrescine (ODC; cells treated in vivo with DFMO): significantly increase
ODC activity (ODC; in vivo): irreversibly inhibit

epigallocatechin-3-gallate [EGCG]
CASP1 ([1]; Th17n): up-regulated; also recorded: upregulating
IKZF3 ([1]; Th17n): downregulated; also recorded: downregulating
IL7R ([1]; Th17n): up-regulated; also recorded: upregulating
IL22 ([1]; Th17n): up-regulated; also recorded: upregulating
pro-pathogenic transcriptional program / module ([1]; Th17n cells): promotes the pro-pathogenic module; also recorded: clearly strengthened
pro-regulatory module ([1]; Th17n cells): suppresses the pro-regulatory module
position on PC1 (pathogenicity phenotype) ([1]; bulk RNA-Seq of d1 Th17n and Th17p cells): toward a more pathogenic one; also recorded: shifted cell profiles towards a more pathogenic state

From patent US20220142948A1, “COMPOSITIONS AND METHODS FOR MODULATING METABOLIC REGULATORS OF T CELL PATHOGENICITY” (The Broad Institute, Inc., priority 2019, published 2022)
